Literature values as cited in patent EP0682945B1, “Oral sustained release preparation” (Lannacher Heilmittel Ges.m.b.H., priority 1994, dated 1995).

Settings: orale Anwendung, im Mittel

CN1CC[C@]23c4c5ccc(O)c4O[C@H]2[C@@H](O)C=C[C@H]3[C@H]1C5 [Morphin]
Bioverfügbarkeit: 38%
